# Results published in PubChem BioAssay (NCI).
#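 How tested: cells in 96-well plates exposed to compound for 48 hours at five concentrations. GI50 = concentration required for 50% inhibition of growth. TGI marks complete inhibition of growth.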
# How the values were obtained:
# Assay in all cases: NCI anticancer screen, dose series, 48 h
# [1] = test system: 786-0 renal
# [2] = test system: A498 renal
# [3] = test system: A549 NSCLC
# [4] = test system: ACHN renal
# [5] = test system: BT-549 breast
# [6] = test system: CAKI-1 renal
# [7] = test system: CCRF-CEM leukemia
# [8] = test system: COLO 205 colon
# [9] = test system: DU-145 prostate
# [10] = test system: EKVX NSCLC
# [11] = test system: HCC-2998 colon
# [12] = test system: HCT-116 colon
# [13] = test system: HCT-15 colon
# [14] = test system: HL-60(TB) leukemia
# [15] = test system: HOP-62 NSCLC
# [16] = test system: HOP-92 NSCLC
# [17] = test system: HS 578T breast
# [18] = test system: HT29 colon
# [19] = test system: IGROV1 ovarian
# [20] = test system: K-562 leukemia
# [21] = test system: KM12 colon
# [22] = test system: LOX IMVI melanoma
# [23] = test system: M14 melanoma
# [24] = test system: MALME-3M melanoma
# [25] = test system: MCF7 breast
# [26] = test system: MDA-MB-231 breast
# [27] = test system: MDA-MB-435
# [28] = test system: MOLT-4 leukemia
# [29] = test system: NCI-H226 lung
# [30] = test system: NCI-H23 lung
# [31] = test system: NCI-H460 lung
# [32] = test system: NCI-H522 lung
# [33] = test system: NCI/ADR-RES ovarian
# [34] = test system: OVCAR-3 ovarian
# [35] = test system: OVCAR-4 ovarian
# [36] = test system: OVCAR-5 ovarian
# [37] = test system: OVCAR-8 ovarian
# [38] = test system: PC-3 prostate
# [39] = test system: RPMI-8226 leukemia
# [40] = test system: RXF 393 renal
# [41] = test system: SF-268 CNS
# [42] = test system: SF-539 CNS
# [43] = test system: SK-MEL-2 melanoma
# [44] = test system: SK-MEL-28 melanoma
# [45] = test system: SK-MEL-5 melanoma
# [46] = test system: SK-OV-3 ovarian
# [47] = test system: SN12C renal
# [48] = test system: SNB-19 CNS
# [49] = test system: SNB-75 CNS
# [50] = test system: SR leukemia
# [51] = test system: SW-620 colon
# [52] = test system: T-47D breast
# [53] = test system: TK-10 renal
# [54] = test system: U251 CNS
# [55] = test system: UACC-257 melanoma
# [56] = test system: UACC-62 melanoma
# [57] = test system: UO-31 renal
smiles,measurement,setting,value
Cc1cc(I)cc(CN(CCCN(C)C)C(C)C)c1O,GI50,[1],15.7 µM
same,TGI,[1],30.5 µM
same,GI50,[2],21 µM
same,TGI,[2],37.8 µM
same,GI50,[3],18.2 µM
same,TGI,[3],39.6 µM
same,GI50,[4],17.3 µM
same,TGI,[4],31.6 µM
same,GI50,[5],11.5 µM
same,TGI,[5],23.9 µM
same,GI50,[6],16.5 µM
same,TGI,[6],33.6 µM
same,GI50,[7],0.116 µM
same,TGI,[7],1.03 µM
same,GI50,[8],14.7 µM
same,TGI,[8],27.8 µM
same,GI50,[9],16.1 µM
same,TGI,[9],29.6 µM
same,GI50,[10],18.3 µM
same,TGI,[10],42.9 µM
same,GI50,[11],16.5 µM
same,TGI,[11],30.6 µM
same,GI50,[12],12.6 µM
same,TGI,[12],25.1 µM
same,GI50,[13],17.5 µM
same,TGI,[13],39.5 µM
same,GI50,[14],18.2 µM
same,TGI,[14],36 µM
same,GI50,[15],16.1 µM
same,TGI,[15],30.6 µM
same,GI50,[16],5.77 µM
same,TGI,[16],31.9 µM
same,GI50,[17],18.1 µM
same,TGI,[17],35.6 µM
same,GI50,[18],9.23 µM
same,TGI,[18],21.2 µM
same,GI50,[19],15.9 µM
same,TGI,[19],31.7 µM
same,GI50,[20],16.3 µM
same,TGI,[20],34.7 µM
same,GI50,[21],18 µM
same,TGI,[21],36 µM
same,GI50,[22],15 µM
same,TGI,[22],28.6 µM
same,GI50,[23],16.2 µM
same,TGI,[23],31 µM
same,GI50,[24],21.6 µM
same,TGI,[24],40.8 µM
same,GI50,[25],18.8 µM
same,TGI,[25],36 µM
same,GI50,[26],18.1 µM
same,TGI,[26],43.6 µM
same,GI50,[27],17.3 µM
same,TGI,[27],35.9 µM
same,GI50,[28],16.3 µM
same,TGI,[28],34.7 µM
same,GI50,[29],25.7 µM
same,TGI,[29],> 100 µM
same,GI50,[30],31.4 µM
same,TGI,[30],> 100 µM
same,GI50,[31],15.9 µM
same,TGI,[31],29.8 µM
same,GI50,[32],16 µM
same,TGI,[32],31.4 µM
same,GI50,[33],23.1 µM
same,TGI,[33],61.6 µM
same,GI50,[34],18.8 µM
same,TGI,[34],34.8 µM
same,GI50,[35],37.2 µM
same,TGI,[35],> 100 µM
same,GI50,[36],19.7 µM
same,TGI,[36],53.5 µM
same,GI50,[37],31.6 µM
same,TGI,[37],> 100 µM
same,GI50,[38],14 µM
same,TGI,[38],30.4 µM
same,GI50,[39],11.5 µM
same,TGI,[39],26.7 µM
same,GI50,[40],16 µM
same,TGI,[40],46.8 µM
same,GI50,[41],17.1 µM
same,TGI,[41],32.9 µM
same,GI50,[42],15.3 µM
same,TGI,[42],29.1 µM
same,GI50,[43],18.2 µM
same,TGI,[43],35.7 µM
same,GI50,[44],16.5 µM
same,TGI,[44],34.3 µM
same,GI50,[45],16.4 µM
same,TGI,[45],30.2 µM
same,GI50,[46],15.1 µM
same,TGI,[46],30.9 µM
same,GI50,[47],37.8 µM
same,TGI,[47],> 100 µM
same,GI50,[48],18.4 µM
same,TGI,[48],42.5 µM
same,GI50,[49],16.6 µM
same,TGI,[49],36.3 µM
same,GI50,[50],15.9 µM
same,TGI,[50],35.8 µM
same,GI50,[51],17.3 µM
same,TGI,[51],31.6 µM
same,GI50,[52],15.2 µM
same,TGI,[52],39.8 µM
same,GI50,[53],18.2 µM
same,TGI,[53],33.1 µM
same,GI50,[54],18.5 µM
same,TGI,[54],36.1 µM
same,GI50,[55],16.7 µM
same,TGI,[55],32.5 µM
same,GI50,[56],15.2 µM
same,TGI,[56],33.7 µM
same,GI50,[57],14.5 µM
same,TGI,[57],32.6 µM
